Test: Metabolite profiling in rats (bile, plasma, liver)
Format: in vivo, male Sprague–Dawley rats
Settings: saxagliptin 100 mg/kg intraperitoneal injection, samples up to 4 h
Source text: Male Sprague–Dawley (SD) rats (7 weeks old, 200–225 g) were purchased from SamTako Co. (Osan, Republic of Korea). The animals were acclimatized for one week in an animal facility at the College of Pharmacy, Kyungpook National University (Daegu, Republic of Korea). The Kyungpook National University Animal Care and Use Committee (KNU 2021-0120, 12 July 2021) approved the study protocol, conducted under the National Institutes of Health guidance for the care and use of laboratory animals. […] The bile duct was cannulated with polyethylene tubes (PE-10, Jungdo, Seoul, Republic of Korea) under isoflurane anesthesia (isoflurane vaporizer to 2% with oxygen flow at 0.8 L/min). […] Bile samples were then collected for 4 h. […] The liver tissues were immediately excised, gently washed with ice-cold saline-soaked wet tissue to remove the contaminated blood, and homogenized with 4 volumes of saline. Aliquots of plasma, bile, and 20% liver homogenates were stored at −80 °C until the analysis.
The liver homogenates were vortexed with the same volume of methanol/acetonitrile mixtures (1/1, v/v) and centrifuged (13,500× g, 10 min). The remaining pellets were reextracted twice, and pooled supernatants were dried and reconstituted with 50% methanol in water (100 μL) for LC-MS/MS analysis. Protein concentrations in the pellets were determined using a Bradford protein assay kit (Bio-Rad Laboratories, Hercules, CA, USA) with bovine serum albumin as a standard. The rat bile and plasma (200 μL) samples were vortexed with the same methanol/acetonitrile mixture volume (1/1, v/v). The mixture was centrifuged after vortexing, and the supernatants were dried to complete dryness and reconstituted with 50% methanol in water (100 μL) for LC-MS/MS analysis. The contents of biliverdin in the bile samples were analyzed by measuring ultraviolet absorbance at 380 nm using a microplate reader (Infinite M200 PRO, TECAN, Mannedorf, Switzerland) after 10-fold dilution with 50% methanol.

Row | Compound | Metabolite detection in rat bile, plasma and liver tissues
1 | NC(C(=O)N1C(C2=NC(C(=O)O)CS2)CC2CC21)C12CC3CC(CC(O)(C3)C1)C2 (stereo not shown) [Metabolite M3, Saxagliptin–cysteine conjugate] | observed in rats
2 | NC(C(=O)N1C(C2=NC(C(=O)NCC(=O)O)CS2)CC2CC21)C12CC3CC(CC(O)(C3)C1)C2 (stereo not shown) [Metabolite M5, Saxagliptin–cysteinylglycine conjugate] | found in rat bile, plasma, and liver tissues
3 | NC(C(=O)N1C(C2=NC(C(=O)NCC(=O)O)CS2)CC2CC21)C12CC3CC(O)(CC(O)(C3)C1)C2 (stereo not shown) [Metabolite M6, 5-Hydroxysaxagliptin–cysteinylglycine conjugate] | observed in rats
4 | N#CC1CC2CC2N1C(=O)C(N)C12CC3CC(CC(OS(=O)(=O)O)(C3)C1)C2 (stereo not shown) [Metabolite M7, Saxagliptin-O-sulfate] | only found in rat bile
5 | N#CC1CC2CC2N1C(=O)C(N)C12CC3CC(CC(OC4OC(C(=O)O)C(O)C(O)C4O)(C3)C1)C2 (stereo not shown) [Metabolite M8, Saxagliptin-O-glucuronide] | observed in rat bile, plasma, and liver tissues

Test: not given
Settings: cited from earlier work

Row | Compound | Stability on incubation with L-cysteine
6 | Cn1c(=O)cc(N2CCC[C@@H](N)C2)n(Cc2ccccc2C#N)c1=O [alogliptin] | stable
7 | Cc1cc2ncc(C(=O)NCC(C)(C)NCC(=O)N3CCC[C@H]3C#N)cn2n1 [anagliptin] | unstable
8 | CC#CCn1c(N2CCC[C@@H](N)C2)nc2c1c(=O)n(Cc1nc(C)c3ccccc3n1)c(=O)n2C [linagliptin] | stable
9 | N[C@@H](CC(=O)N1CCn2c(nnc2C(F)(F)F)C1)Cc1cc(F)c(F)cc1F [sitagliptin] | stable

Test: Metabolite profiling in rat liver microsomes
Format: in vitro ADME
Settings: microsomal incubation with 5-hydroxysaxagliptin in the presence of L-cysteine
Description: L-cysteine (100 mM), glutathione (2.5 mM), or UDPGA (5 mM) was added after pre-incubation with or without 100 mM L-cysteine at 37 °C for 5 min to an NADPH-generating system (1.3 mM of NADP^+, 3.3 mM of G6P, 1 unit/mL of G6PDH, and 3.3 mM of MgCl2) to initiate the microsomal reaction. The reaction was stopped by adding cold acetonitrile after microsomal incubation for 2 h.
In the presence of L-cysteine (100 mM) or glutathione (100 mM) in phosphate buffer (100 mM, pH of 7.4), 5-Hydroxysaxagliptin (100 μM) was incubated at 37 °C for 2 h. The supernatants were analyzed using high-resolution Orbitrap MS after incubation reaction termination and centrifugation.

Row | Compound | Metabolite detection in incubate of 5-hydroxysaxagliptin with L-cysteine
10 | NC(C(=O)N1C(C2=NC(C(=O)O)CS2)CC2CC21)C12CC3CC(O)(CC(O)(C3)C1)C2 (stereo not shown) [Metabolite M4, 5-Hydroxysaxagliptin–cysteine conjugate] | detected

Same assay, conditions: saxagliptin 100 μM, RLM 1 mg/mL, NADPH-generating system and/or L-cysteine, 2 h

Row | Compound | Metabolite detection in incubates of saxagliptin
11 | N=C1NC(C23CC4CC(CC(O)(C4)C2)C3)N2C1CC1CC12 (stereo not shown) [Metabolite M1, Saxagliptin cyclic amidine] | found in the incubation sample of saxagliptin with buffer solution (Figure 5a) and RLM (Figure 5c) in the presence of +L-cysteine
12 | N#CC1CC2CC2N1C(=O)C(N)C12CC3CC(O)(CC(O)(C3)C1)C2 (stereo not shown) [Metabolite M2, 5-Hydroxysaxagliptin] | observed in rat liver microsomal incubation samples regardless of the addition of L-cysteine
13 | NC(C(=O)N1C(C2=NC(C(=O)O)CS2)CC2CC21)C12CC3CC(CC(O)(C3)C1)C2 (stereo not shown) [Metabolite M3, Saxagliptin–cysteine conjugate] | formed in an enzyme-nonspecific manner
